Reference: patent publication US10875834B2, “Prodrug and protected forms of 5-hydroxymethylfurfuranal (5-HMF) and its derivatives” (VIRGINIA COMMONWEALTH UNIVERSITY, priority 2016, dated 2020)
Several values for one entry are separate records, joined by “and”; a condition that tells them apart may be missing. Equal entries are not always repeated. Entries after “also recorded” stand apart in the source; their conditions may differ. Where two headings read alike, the source gives them in different places.

Assays:
[1] = biological target: T1, sickle Hb oxygen affinity (Homo sapiens, UniProt P69905); assay: Oxygen equilibrium curve (OEC) study, P50 shift of hemolysate from SS cells; format: cell-based; conditions: for AP50 (%): 2 mM test compound, hemolysate of SS cells, mean ± SD, three experiments; for P50 shift relative to 5-HMF: 1, 2 and 5 mM
T1 construct: from tissue; host or cells: blood (red cells) of a subject with homozygous sickle cell disease; hemolysate analysed
T1 sequence (P69905 2-142 limits assumed): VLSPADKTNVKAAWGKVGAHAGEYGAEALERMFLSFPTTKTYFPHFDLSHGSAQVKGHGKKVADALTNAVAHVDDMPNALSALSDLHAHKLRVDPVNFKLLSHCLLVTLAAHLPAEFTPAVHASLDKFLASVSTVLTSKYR
Excerpt: (§1) The twelve compounds, VZHE004, VZHE006, VZHE007, VZHE005, VZHE011, VZHE013, VZHE014, VZHE015, VZHE016, 5-PMFC, 5-CMFC, 5-NMFC, and the parent compound (positive control) 5-HMF were investigated for their abilities to prevent hypoxia-induced RBC sickling (RBC morphology study), increase sickle Hb oxygen affinity (oxygen equilibrium curve; OEC study), and modify sickle Hb (adduct formation study) as previously published (Abdulmalik et al., Br. J Haematol., 2005, 128, 552; Safo et al, J. Med. Chem, 2004, 47, 4665). Briefly, blood suspensions from a subject with homozygous SCD (hematocrit: 20%) were incubated under air in the absence or presence of 1, 2 and 5 mM concentration of test compounds at 37° C. for 1 hr to ensure that binding had attained equilibrium. Following, the suspensions were incubated under hypoxic condition (4% oxygen/96% nitrogen) at 37° C. for 2 hr. Aliquot samples were fixed with 2% glutaraldehyde solution without exposure to air, and then subjected to microscopic morphological analysis. The residual samples were washed in phosphate-buffered saline, and hemolyzed in hypotonic lysis buffer for subsequent analyses.
(§2) For the OEC study, approximately 100 μl aliquot samples from clarified lysate obtained from the antisickling study were added to 4 ml of 0.1M potassium phosphate buffer, pH 7.0, in a cuvette and subjected to hemoximetry analysis using Hemox™ Analyzer (TCS Scientific Corp.) to assess P50 shifts. Finally, for the Hb adduct formation study, clarified lysates, also from the above antisickling study, were subjected to cation-exchange HPLC (Hitachi D-7000 Series, Hitachi Instruments, Inc., San Jose, Calif.), using a weak cation-exchange column (Poly CAT A: 30 mm×4.6 mm, Poly LC, Inc., Columbia, Md.).

[2] = tested on: homozygous sickle red blood cells (SS cells); assay: Antisickling (RBC morphology) study under hypoxia; format: cell-based, human
Excerpt: as §1

sickle Hb (Hb S) = biological target: T2, sickle Hb (Hb S) (Homo sapiens, UniProt P69905); assay: Hb adduct formation study (Hb S modification) with SS cells, cation-exchange HPLC; format: cell-based; conditions: for Modified Hb (%): 2 mM test compound, SS cells suspensions (20% hematocrit), mean ± SD, three experiments; for Hb modification relative to 5-HMF: 1, 2 and 5 mM
T2 construct: from tissue; host or cells: blood (red cells) of a subject with homozygous sickle cell disease; hemolysate analysed
T2 sequence (P69905 2-142 limits assumed): as above
Excerpt: as §1, §2

[3] = both in-vitro and in-vivo; cited from earlier work
sickle cell disease = conditions: phase I/II human clinical studies; cited from earlier work
Hb A = biological target: T3, Hb A (Homo sapiens, UniProt P69905); assay: Time-dependent adduct formation study in normal whole blood; format: in vitro ADME; conditions: 2 mM, up to 24 hr
T3 construct: time-dependent studies on Hb adduct formation using normal whole blood; from tissue; host or cells: normal human whole blood (30% hct)
T3 sequence (P69905 2-142 limits assumed): as above
T3 sequence (P68871 2-147 partner limits assumed): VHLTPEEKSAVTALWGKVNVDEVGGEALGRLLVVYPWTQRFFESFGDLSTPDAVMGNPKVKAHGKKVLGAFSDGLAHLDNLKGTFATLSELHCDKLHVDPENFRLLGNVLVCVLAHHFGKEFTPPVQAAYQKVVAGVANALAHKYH
Experimental: The compounds, VZHE004, VZHE006, VZHE007, VZHE005, VZHE011, VZHE013, VZHE014, VZHE015, VZHE016, 5-PMFC, 5-NMFC, and the control 5-HMF were used to conduct time-dependent studies on Hb adduct formation using normal whole blood. The study was performed in a 96-well deepwell (Thermo Scientific) plate, where each compound at 2 mM concentration was added to 600 μL of whole blood (30% hct) and incubated at 37° C. for 24 hr with shaking (at 140 rpm). At 0.5 hr, 1 hr, 2 hr, 4 hr, 6 hr, 8 hr and 24 hr time intervals, 75 μL aliquot of blood was removed from each well using a multichannel pipette and added to respective tubes containing 75 μL of Na cyanoborohydride and borohydride mix (1:1 v/v 50 mM stock) to terminate the Schiff-base reaction, fix the Schiff-base adducts and reduce the reduce free reactive aldehyde (Davies et al., Food Chem. Toxicol. 2009, 47, 1950). We have previously optimized these conditions. After mixing, the tubes were stored immediately at −80° C. until ready for analysis to determine Hb adduct formation using cation-exchange HPLC (Hitachi D-7000 Series, Hitachi Instruments, Inc., San Jose, Calif.).

Hb = Hb (Homo sapiens, UniProt P69905); assay: Incubation of Hb with VZHE004 for three days, UPLC-MS analysis; format: in vitro ADME; conditions: incubated with Hb for three days
Chain of Hb (P69905 2-142 limits assumed): as the sequence (P69905 2-142 limits assumed) above
Chain of Hb (P68871 2-147 partner limits assumed): as the sequence (P68871 2-147 partner limits assumed) above
Excerpt: The overall tetrameric structure is indistinguishable (rmsd ˜0.4 Å) from 1BBB or the R2 structure in complex with 5-HMF (PDB code 1QXE). Like 5-HMF we also observed a pair of VZHE004 molecules covalently bound to the N-terminal αVal1 amines (Schiff-base interaction) in a symmetry-related fashion at the α-cleft (FIG. 7). The electron density of VZHE004 was relatively weak especially at the methyl acetate position. As such, the compound was refined as 5-HMF at the α1Val1 site, while the full VZHE004 was modelled at the α2Val1 binding site but with the methyl acetate refined in two alternate conformations (FIG. 7a). However, to make sure that the disorder is not due to partial hydrolytic cleavage of the ester, Hb and VZHE004 were incubated for three days.

[4] = Homo sapiens, Erythrocyte, 2 mM test compound, SS cells 20% hematocrit, hypoxia 4% oxygen/96% nitrogen, mean ± SD, read-out: Inhibition of Sickling (%)
[5] = Homo sapiens, Erythrocyte, 2 mM, read-out: RBC sickling inhibition
[6] = Homo sapiens, Erythrocyte, 5 mM, read-out: RBC sickling inhibition
[7] = 2 mM test compound, SS cells 20% hematocrit, hypoxia 4% oxygen/96% nitrogen, mean ± SD

| Structure (SMILES) | AP50 (%) [1] [%] | P50 shift relative to 5-HMF [1] | inhibition at 2000 µM [2, 4] [%] | inhibition at 2000 µM [2, 5] [%] | antisickling effect ([2]; over 1, 2 and 5 mM) | Modified Hb (%) (sickle Hb (Hb S)) | inhibition at 5000 µM [2, 6] [%] | other results |
| --- | --- | --- | --- | --- | --- | --- | --- | --- |
| O=Cc1ccc(COc2ccc(Cl)cc2)o1 [Compound 5-CMFC, 5-((4-chlorophenoxy)methyl)-2-furan carbaldehyde] | 13.2 ± 5.2 | significantly less P50 shift than 5-HMF; also recorded: lower degrees of shift than 5-HMF | 2 ± 1.9 | < 10 | barely showed any antisickling activity; also recorded: poor antisickling effects | 26.7 ± 6.5 |  | antisickling effect ([2]; 5 mM): barely showed any antisickling effect |
| O=Cc1ccc(CO)o1 [Compound 5-HMF, 5-hydroxymethyl-2-furfural, reference compound] | 33.4 ± 0.9 |  | 25.7 ± 4.4 | 26 |  | 32.8 ± 1.6 |  | half-life in plasma [3]: 1 to 1.5 h; RBC sickling inhibition ([2]; 2 mM): ~23% and ~26%; effective dose (sickle cell disease): 2-4 gm |
| O=Cc1ccc(COc2ccccc2[N+](=O)[O-])o1 [Compound 5-NMFC, 5-((2-nitrophenoxy)methyl)-2-furan carbaldehyde] | 13.4 ± 5.7 | significantly less P50 shift than 5-HMF; also recorded: lower degrees of shift than 5-HMF | 10.3 ± 0.5 | < 10 | barely showed any antisickling activity; also recorded: poor antisickling effects | 40.5 ± 17.6 | < 10 | antisickling effect ([2]; 5 mM): barely showed any antisickling effect; metabolic profile / decline of Hb adduct in whole blood (Hb A): exhibit some resistance to metabolism; Hb modification relative to 5-HMF (sickle Hb (Hb S)): superior Hb modification |
| O=Cc1ccc(COc2ccccc2)o1 [Compound 5-PMFC, 5-(phenoxymethyl)-2-furan carbaldehyde] | 45.4 ± 14.6 | better P50 sift than 5-HMF | 94.7 ± 0.1 |  |  | 60.53 ± 5.3 |  | RBC sickling inhibition ([2]; 2 mM): ~95%; antisickling effect ([2]; 2 mM): attained maximum effect; inhibition at 1000 µM ([2]; Homo sapiens, Erythrocyte, 1 mM, read-out: RBC sickling inhibition): ~17%; metabolic profile / decline of Hb adduct in whole blood (Hb A): exhibit some resistance to metabolism; Hb modification relative to 5-HMF (sickle Hb (Hb S)): superior Hb modification |
| CC(=O)OCc1ccc(C=O)o1 [VZHE004, (5-formylfuran-2-yl)methyl acetate] | 44.6 ± 11.9 |  | 26.3 ± 4.4 |  |  | 43.5 ± 8.4 | 60 | stability of the ester against hydrolytic cleavage (UPLC-MS) (Hb): intact; RBC sickling inhibition ([2]; 5 mM): ~60% |
| CC(C)(C)OC(=O)OCc1ccc(C=O)o1 [VZHE006, tert-Butyl ((5-formylfuran-2-yl)methyl) carbonate] | 44.8 ± 12.9 |  | 71.6 ± 0.1 | 35 to 95 |  | 50.0 ± 3.0 | > 95 |  |
| O=Cc1ccc(COC(=O)c2ccccc2)o1 [VZHE007, (5-Formylfuran-2-yl)methyl Benzoate] | 38.9 ± 11.9 |  | 10 ± 5.9 |  | poor antisickling effects | 44.5 ± 6.0 | ~83 |  |
| CCOCc1ccc(C=O)o1 [VZHE011, 5-(Ethoxymethyl)-2-furan Carboxadehyde] | 39.8 ± 0.8 |  | 58.8 ± 7 | 35 to 95 |  | 40.4 ± 3.9 |  | antisickling effect ([2]; 2 mM): superior |
| CC(C)(C)OCc1ccc(C=O)o1 [VZHE013, 5-(tert-Butoxymethyl)furan-2-carbaldehyde] | 24.0 ± 5.6 | weaker | 7.4 ± 6.9 |  | very little antisickling activity; also recorded: barely showed any antisickling activity; also recorded: poor antisickling effects | 15.7 ± 4.3 |  | % P50 shift ([1]; 1 mM): 16%; % P50 shift ([1]; 2 mM): 24%; % P50 shift ([1]; 5 mM): 46%; sickling inhibition (antisickling effect) ([2]; at all three concentrations (1, 2 and 5 mM)): less than 5%; Hb modification relative to 5-HMF (sickle Hb (Hb S)): weaker adduct formation |
| COP(=O)(OC)OCc1ccc(C=O)o1 [VZHE014, (5-Formylfuran-2-yl)methyl Dimethyl Phosphate] | 35.7 ± 8.1 |  |  |  | poor antisickling effects | 19.7 ± 6.3 |  | Inhibition of Sickling (%) [2, 7]: 8.4 ± 5.9%; RBC sickling inhibition ([2]; 5 mM): 43% and ~40% |
| CCCOCc1ccc(C=O)o1 [VZHE015, 5-(Propoxymethyl)-2-furan Carboxadehyde] | 44.0 ± 9.7 |  | 62.9 ± 6.2 | 35 to 95 |  | 39.7 ± 8.2 |  | antisickling effect ([2]; 2 mM): superior |
| CC(C)OCc1ccc(C=O)o1 [VZHE016, 5-(isopropoxymethyl)-2-furan Carboxadehyde] | 38.4 ± 10.4 |  |  |  |  | 36.4 ± 9.7 |  | RBC sickling inhibition ([2]; 2 mM): ~16%; Inhibition of Sickling (%) [2, 7]: 22.5 ± 8.8% |
